Data on nine compounds can be found in ChEMBL document CHEMBL1201862, “PubChem BioAssay data set” (2004).

Some test systems named below: HOP-92; ACHN; SF-268; SF-539; NCI-H522; OVCAR-3; HCC 2998; Malme-3M; SK-MEL-28; COLO 205; SK-MEL-2; SK-OV-3; HT-29; UACC-62; TK-10; NCI-H23; HCT-15; RPMI-8226.
What all share (test): inhibition of tumour cell growth, NCI panel, 48 h

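Exposure lasted 48 hours, with cells grown in 96-well plates and compounds tested at five concentrations. The concentration for 50% growth inhibition is given as GI50.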 Calls of active or inactive are those of the source. Cut-off read from the data, not from the text of the source: active = GI50 up to about 1.1 µM and inactive = higher.

`CC(C)OCN1COCN/C1=N/C#N`: the GI50 in the experiment on HOP-92, in the experiment on ACHN, with SF-268, with SF-539, in the experiment with NCI-H522 and with OVCAR-3 was > 100 µM (inactive) in each case. The GI50 in the experiment on HCC 2998 was > 100 µM (inactive); with Malme-3M, > 100 µM (inactive); with SK-MEL-28, > 100 µM (inactive); with COLO 205, 20.8 µM (inactive); in the experiment with SK-MEL-2 it was > 100 µM (inactive); with SK-OV-3, > 100 µM (inactive). Besides, the GI50 in the experiment with HT-29 was 78.3 µM (inactive); with UACC-62 it was > 100 µM (inactive); in the experiment with TK-10, > 100 µM (inactive); in the experiment with NCI-H23, > 100 µM (inactive); with HCT-15, 17.7 µM.
On to `Nc1nc(S)nc(C(=O)Nc2ccc(Cl)c(Cl)c2)c1-c1ccc(Cl)cc1`, for which the GI50 is 93.1 µM (inactive) in the experiment with HOP-92; > 100 µM (inactive) with ACHN; > 100 µM (inactive) in the experiment with SF-268; > 100 µM (inactive) with SF-539; > 100 µM (inactive) in the experiment with NCI-H522; > 100 µM (inactive) in the experiment with OVCAR-3. Also, the GI50 in the experiment on HCC 2998 was > 100 µM (inactive); in the experiment with Malme-3M, > 100 µM (inactive); with SK-MEL-28, > 100 µM (inactive); in the experiment with COLO 205 it was > 100 µM (inactive); in the experiment on SK-OV-3 it was > 100 µM (inactive); in the experiment on HT-29, 71.4 µM (inactive). Also, the GI50 in the experiment on UACC-62 was > 100 µM (inactive); in the experiment with TK-10, > 100 µM (inactive); in the experiment on NCI-H23, > 100 µM (inactive); in the experiment on RPMI-8226 it was 62.7 µM (inactive); in the experiment on HCT-15 it was above 100 µM.
Consider `CC(=O)OCCc1cccnc1/C=N/O`, for which the GI50 in the experiment with HOP-92, with ACHN, in the experiment on SF-268, with SF-539, in the experiment with NCI-H522 and with OVCAR-3 was > 100 µM (inactive) each time. In addition, the GI50 in the experiment on HCC 2998, with Malme-3M, with SK-MEL-28, in the experiment on COLO 205, in the experiment on SK-MEL-2 and in the experiment with SK-OV-3 was > 100 µM (inactive) each time. For the same compound, the GI50 was > 100 µM (inactive) in the experiment with HT-29; > 100 µM (inactive) in the experiment with UACC-62; > 100 µM (inactive) with TK-10; > 100 µM (inactive) with NCI-H23; above 100 µM in the experiment with HCT-15.
For `CC12CC(=O)OC(Cc3ccccc31)O2` (stereo unspecified), the GI50 with HOP-92, in the experiment on ACHN, in the experiment with SF-268, in the experiment on SF-539, in the experiment with NCI-H522 and with OVCAR-3 was > 100 µM (inactive) each time. Moreover, the GI50 in the experiment with HCC 2998, in the experiment with Malme-3M, with SK-MEL-28, in the experiment on COLO 205, in the experiment with SK-MEL-2 and with SK-OV-3 was > 100 µM (inactive) each time. In addition, the GI50 in the experiment on HT-29, with UACC-62, in the experiment on TK-10, in the experiment with NCI-H23 and in the experiment on RPMI-8226 was > 100 µM (inactive) in each case.
With `CCOC(=O)C(=O)Nc1nc2c(s1)C(=O)c1ccccc1C2=O`, the GI50 is 12.2 µM (inactive) in the experiment with HOP-92; 14.9 µM (inactive) in the experiment on ACHN; 14.1 µM (inactive) in the experiment on SF-268; 17.7 µM (inactive) in the experiment on SF-539; 14.9 µM (inactive) with NCI-H522; 5.62 µM (inactive) in the experiment on OVCAR-3. Further, the GI50 in the experiment on HCC 2998 is 17.7 µM (inactive); in the experiment with Malme-3M it was 12.3 µM (inactive); in the experiment with SK-MEL-28, 14.3 µM (inactive); with COLO 205, 22.5 µM (inactive); in the experiment with SK-MEL-2 it was 17.2 µM (inactive); with SK-OV-3, > 10 µM (inactive). For the same compound, the GI50 in the experiment with HT-29 is 14.4 µM (inactive); with UACC-62 it was 17.5 µM (inactive); in the experiment on NCI-H23 it was 13.5 µM (inactive); in the experiment with RPMI-8226, 4.74 µM (inactive); in the experiment on HCT-15 it was 15.6 µM.
`COC(=O)C1=C(C)C(=O)C2(CCCCCC2C(=O)OC)C1` (stereo unspecified): the GI50 was > 100 µM (inactive) in the experiment with HOP-92; > 100 µM (inactive) in the experiment on ACHN; > 100 µM (inactive) with SF-268; 63.7 µM (inactive) with SF-539; 65.2 µM (inactive) with NCI-H522; > 100 µM (inactive) with HCC 2998. Besides, the GI50 with Malme-3M, in the experiment on SK-MEL-28, in the experiment with COLO 205, in the experiment with SK-MEL-2, with SK-OV-3 and in the experiment on HT-29 was > 100 µM (inactive) in each case. Also, the GI50 in the experiment on UACC-62 is > 100 µM (inactive); in the experiment on TK-10 it was > 100 µM (inactive); in the experiment with NCI-H23, > 100 µM (inactive); in the experiment on RPMI-8226, > 100 µM (inactive); with HCT-15, above 100 µM.
Take `COc1cc(O)c(C(=O)/C=C/c2ccc(OC)c(OCc3ccccc3)c2)c(OC)c1`: the GI50 with HOP-92 was > 100 µM (inactive); in the experiment with ACHN, 5.58 µM (inactive); in the experiment on SF-539 it was > 100 µM (inactive); with NCI-H522, 7.46 µM (inactive); in the experiment with OVCAR-3, 38.5 µM (inactive); in the experiment with HCC 2998, 46.9 µM (inactive). Also, the GI50 with COLO 205 was 0.0446 µM (active); with SK-MEL-2, 37.8 µM (inactive); in the experiment on SK-OV-3, > 100 µM (inactive); in the experiment on HT-29, > 100 µM (inactive); in the experiment with UACC-62 it was 1.42 µM (inactive); with TK-10, > 100 µM (inactive). Further, the GI50 with NCI-H23 is 6.52 µM (inactive); in the experiment with RPMI-8226 it was 5.86 µM (inactive); in the experiment with HCT-15, 10.3 µM.
`COC(=O)[C@@]12OC[C@]34C([C@@H](O)C1O)[C@@]1(C)CC(=O)C(O)=C(C)C1C[C@H]3OC(=O)[C@H](OC(=O)CC(C)C(F)(F)F)[C@H]42` (stereo partly specified): the GI50 in the experiment with HOP-92 is 0.00953 µM (active); with ACHN it was 0.0231 µM (active); in the experiment on SF-268 it was 0.0869 µM (active); in the experiment on SF-539 it was 0.0105 µM (active); in the experiment with NCI-H522, 0.00891 µM (active); in the experiment on HCC 2998, 0.0105 µM (active). The GI50 was 0.0101 µM (active) in the experiment on Malme-3M; 0.0121 µM (active) in the experiment on SK-MEL-28; 0.101 µM (active) in the experiment with COLO 205; 0.0771 µM (active) in the experiment with SK-MEL-2; 0.0514 µM (active) in the experiment with SK-OV-3; 0.0133 µM (active) in the experiment with HT-29. For the same compound, the GI50 was 0.00748 µM (active) in the experiment on UACC-62; 0.0662 µM (active) in the experiment on TK-10; 0.0126 µM (active) in the experiment with NCI-H23; 0.0116 µM (active) in the experiment on RPMI-8226; 0.166 µM in the experiment on HCT-15.
For the compound `O=c1cc(-c2ccc(O)cc2)oc2cc(O)cc(O)c12` [APIGENIN], the GI50 in the experiment on HOP-92 was 20.2 µM (inactive); in the experiment on ACHN, 15.1 µM (inactive); in the experiment with SF-268, 27.5 µM (inactive); with SF-539 it was > 10 µM (inactive); in the experiment on NCI-H522 it was 15.8 µM (inactive); in the experiment with OVCAR-3, 24.2 µM (inactive). The GI50 with HCC 2998 was 23.9 µM (inactive); in the experiment with Malme-3M it was 33.9 µM (inactive); in the experiment with SK-MEL-28 it was 20.3 µM (inactive); in the experiment with COLO 205, 38.9 µM (inactive); in the experiment on SK-MEL-2, 29.9 µM (inactive); with SK-OV-3, 34.9 µM (inactive). Also, the GI50 in the experiment on UACC-62 was 24.8 µM (inactive); with TK-10 it was 41.2 µM (inactive); in the experiment with NCI-H23 it was 17.8 µM (inactive); with RPMI-8226, 37.7 µM (inactive); in the experiment on HCT-15 it was 28.1 µM.
